Measured values reported in patent US20160176867A1, “MODIFIED BET-PROTEIN-INHIBITING DIHYDROQUINOXALINONES AND DIHYDROPYRIDOPYRAZINONES” (BAYER PHARMA AKTIENGESELLSCHAFT, priority 2013, published 2016).

Experiments:
[1] = molecular target: T1, BRD4 bromo domain 1 [BRD4(1)] (Homo sapiens, UniProt O60885); test: BRD4/acetylated peptide H4 binding assay (TR-FRET), BRD4 bromo domain 1; settings: inhibition of BRD4(1)/Ac-H4 peptide interaction
T1 construct: N-terminally His6-tagged BRD4(1) (amino acids 67-152); made in house; host or cells: E. coli
Excerpt: (§1) Protein-Protein Interaction Assay: BRD4/Acetylated Peptide H4 Binding Assay
To assess the BRD4(1) binding strength of the substances described in this application, the ability thereof to inhibit the interaction between BRD4(1) and acetylated histone H4 in a dose-dependent manner was quantified.
(§2) For this purpose, a time-resolved fluorescence resonance energy transfer (TR-FRET) assay was used, which measures the binding between N-terminally His6-tagged BRD4(1) (amino acids 67-152) and a synthetic acetylated histone H4 (Ac-H4) peptide with sequence GRGK(Ac)GGK(Ac)GLGK(Ac)GGAK(Ac)RHGSGSK-biotin. The recombinant BRD4(1) protein produced in-house according to Filippakopoulos et al., Nature, 2010, 468:1119-1123 and Cell, 2012, 149:214-231, was expressed in E. coli and purified by means of (Ni-NTA) affinity and (Sephadex G-75) size exclusion chromatography. The Ac-H4 peptide can be purchased, for example, from Biosyntan (Berlin, Germany).
(§3) In the assay, typically 11 different concentrations of each substance (0.1 nM, 0.33 nM, 1.1 nM, 3.8 nM, 13 nM, 44 nM, 0.15 μM, 0.51 μM, 1.7 μM, 5.9 μM and 20 μM) were analysed as duplicates on the same microtitre plate. For this purpose, 100-fold concentrated solutions in DMSO were prepared by serial dilutions (1:3.4) of a 2 mM stock solution into a clear, 384-well microtitre plate (Greiner Bio-One, Frickenhausen, Germany). From this, 50 nl were transferred into a black test plate (Greiner Bio-One, Frickenhausen, Germany). The test was started by the addition of 2 μl of a 2.5-fold concentrated BRD4(1) solution (final concentration typically 10 nM in the 5 μl of reaction volume) in aqueous assay buffer [50 mM HEPES pH 7.5, 50 mM sodium chloride (NaCl), 0.25 mM CHAPS and 0.05% serum albumin (BSA)] to the substances in the test plate. This was followed by a 10-minute incubation step at 22° C. for the pre-equilibration of putative complexes between BRD4(1) and the substances.
(§4) The mixture was then incubated in the dark at 22° C. for one hour and then at 4° C. for at least 3 hours and for no longer than overnight. The formation of BRD4(1)/Ac-H4 complexes was determined by the measurement of the resonance energy transfer from the streptavidin-Eu cryptate to the anti-6His-XL665 antibody present in the reaction. For this purpose, the fluorescence emission was measured at 620 nm and 665 nm after excitation at 330-350 nm in a TR-FRET measuring instrument, for example a Rubystar or Pherastar (both from BMG Lab Technologies, Offenburg, Germany) or a Viewlux (Perkin-Elmer). The ratio of the emissions at 665 nm and at 622 nm was taken as an indicator of the amount of BRD4(1)/Ac-H4 complexes formed.
(§5) The data (ratios) obtained were normalized, with 0% inhibition corresponding to the mean from the measurements for a set of controls (typically 32 data points) in which all the reagents were present. In these, in place of test substances, 50 nl of DMSO (100%) were used. Inhibition of 100% corresponded to the mean from the measurements for a set of controls (typically 32 data points) in which all the reagents except BRD4(1) were present. The IC50 was determined by regression analysis based on a 4-parameter equation (minimum, maximum, IC50, Hill; Y=max+(min−max)/(1+(X/IC50)Hill)).

[2] = molecular target: T2, BRD4 bromo domain 2 [BRD4(2)] (Homo sapiens, UniProt O60885); test: BRD4/acetylated peptide H4 binding assay (TR-FRET), BRD4 bromo domain 2; settings: inhibition of BRD4(2)/Ac-H4 peptide interaction
T2 construct: N-terminally His6-tagged BRD4(2) (amino acids 357-445); made in house; host or cells: E. coli
Excerpt: as §1
To assess the BRD4(2) binding strength of the substances described in this application, the ability thereof to inhibit the interaction between BRD4(2) and acetylated histone H4 in a dose-dependent manner was quantified.
as §2, with “BRD4(2)” for “BRD4(1)”, “357-445)” for “67-152)”, “SGRGK(Ac)GGK(Ac)GLGK(Ac)GGAK(Ac)RHRKVLRDNGSGSK-biotin.” for “GRGK(Ac)GGK(Ac)GLGK(Ac)GGAK(Ac)RHGSGSK-biotin.”
as §3, with “concentrated BRD4(2)” for “concentrated BRD4(1)”, “typically 100” for “typically 10”, “chloride (NaCl); 50 mM potassium fluoride (KF);” for “chloride (NaCl),”, “between BRD4(2)” for “between BRD4(1)”, “substances. Subsequently, 3 μl of a 1.67-fold concentrated solution (in assay buffer) consisting of Ac-H4 peptide (83.5 nM) and TR-FRET detection reagents [83.5 nM anti-6His-XL665 (Cisbio Bioassays, Codolet, France) and 12.52 nM streptavidin-Eu), (Perkin Elmer, #W1024)] in assay buffer were added.” for “substances.”
as §4, with “BRD4(2)/Ac-H4” for “BRD4(1)/Ac-H4”, “chelate” for “cryptate”
as §5, with “BRD4(2)” for “BRD4(1)”

SMILES | IC50 [1] | IC50 [2]
C[C@@H]1C(=O)N(C)c2ccc(Nc3cccc(C(=O)NC4CCN(C)CC4)c3)nc2N1C1CCC(C)(C)CC1 [Example 96, 3-{[(3R)-4-(4,4-dimethylcyclohexyl)-1,3-dimethyl-2-oxo-1,2,3,4-tetrahydropyrido[2,3-b]pyrazin-6-yl]amino}-N-(1-methylpiperidin-4-yl)benzamide] | 501 nM | 573 nM
C[C@H]1C(=O)N(C)c2ccc(Nc3cccc(S(=O)(=O)N[C@H]4CC[C@H](N5CCN(CC6CC6)CC5)CC4)c3)nc2N1C1CCOCC1 [Example 36, N-{trans-4-[4-(cyclopropylmethyl)-piperazin-1-yl]cyclohexyl}-3-{[(3S)-1,3-dimethyl-2-oxo-4-(tetrahydro-2H-pyran-4-yl)-1,2,3,4-tetrahydropyrido[2,3-b]pyrazin-6-yl]amino}-benzenesulphonamide] | 727 nM | 4230 nM
COc1ccc(Nc2ccc3c(n2)N(C2CCOCC2)[C@H](C)C(=O)N3C)cc1C(=O)N[C@H]1CC[C@H](N2CCN(CC3CC3)CC2)CC1 [Example 82, N-{trans-4-[4-(cyclo-propylmethyl)piperazin-1-yl]cyclohexyl}-5-{[(3R)-1,3-dimethyl-2-oxo-4-(tetrahydro-2H-pyran-4-yl)-1,2,3,4-tetrahydropyrido[2,3-b]pyrazin-6-yl]amino}-2-methoxybenzamide] | 218 nM | 337 nM
CC1C(=O)N(C)c2ccc(Nc3cccc(S(=O)(=O)N4CCN(C)CC4)c3)nc2N1c1ccc(N2CCN(C(=O)OC(C)(C)C)CC2)cc1 (centres unmarked) [Example 67, tert-butyl 4-{4-[1,3-dimethyl-6-({3-[(4-methylpiperazin-1-yl)sulphonyl]phenl}-amino)-2-oxo-2,3-dihydropyrido[2,3-b]pyrazin-4(1H)-yl]phenyl}piperazine-1-carboxylate] | 4380 nM | 5190 nM
CC(C)N1CCN(C(=O)c2cccc(Nc3ccc4c(n3)N(Cc3ccccc3)[C@H](C)C(=O)N4C)c2)CC1 [Example 76, (3R)-4-benzyl-6-({3-[(4-isopropylpiperazin-1-yl)carbonyl]phenyl}-amino)-1,3-dimethyl-3,4-dihydropyrido[2,3-b]pyrazin-2(1H)-one] | 143 nM | 108 nM
C[C@@H]1C(=O)N(C)c2ccc(Nc3cccc(C(=O)NC4CCN(C)CC4)c3)nc2N1c1ccc(F)cc1 (stereo in doubt) [Example 115, 3-{[(3R)-4-(4-fluorophenyl)-1,3-dimethyl-2-oxo-1,2,3,4-tetrahydropyrido[2,3-b]pyrazin-6-yl]amino}-N-(1-methylpiperidin-4-yl)benzamide] | 379 nM | 706 nM
COc1ccc(Nc2ccc3c(n2)N(C2CCOCC2)[C@H](C)C(=O)N3C)cc1C(=O)NC1CCC(N2CCC(F)(F)CC2)CC1 (some centres unmarked) [Example 89] | 399 nM | 497 nM
C[C@@H]1C(=O)N(C)c2ccc(Nc3cccc(C(=O)N(C)C)c3)cc2N1C1CCN(C(=O)OC(C)(C)C)CC1 [Example 105, tert-butyl 4-[(2R)-7-{[3-(dimethylcarbamoyl)phenyl]amino}-2,4-dimethyl-3-oxo-3,4-dihydroquinoxalin-1(2H)-yl]piperidine-1-carboxylate] | 208 nM | 598 nM
Cc1cccc(N2c3nc(Nc4cccc(S(=O)(=O)N5CCOCC5)c4)ccc3N(C)C(=O)C2C)c1 (centres unmarked) [Example 64, 1,3-dimethyl-4-(3-methylphenyl)-6-{[3-(morpholin-4-ylsulphonyl)phenyl]-amino}-3,4-dihydropyrido[2,3-b]pyrazin-2(1H)-one] | 271 nM | 197 nM
COCCN1c2nc(Nc3cccc(C(=O)NC4CCN(C)CC4)c3)ccc2N(C)C(=O)C1C (racemic) [Example 98, 3-{[4-(2-methoxyethyl)-1,3-dimethyl-2-oxo-1,2,3,4-tetrahydropyrido[2,3-b]pyrazin-6-yl]amino}-N-(1-methylpiperidin-4-yl)benzamide] | 531 nM | 216 nM
COc1c(Nc2ccc3c(n2)N(C2CCOCC2)[C@H](C)C(=O)N3C)cccc1C(=O)N1CCN(C)CC1 [Example 92, (3R)-6-({2-methoxy-3-[(4-methylpiperazin-1-yl)carbonyl]phenyl}-amino)-1,3-dimethyl-4-(tetrahydro-2H-pyran-4-yl)-3,4-dihydropyrido[2,3-b]pyrazin-2(1H)-one] | 452 nM | 579 nM
C[C@@H]1C(=O)N(C)c2ccc(Nc3cccc(S(=O)(=O)N(C)C)c3)cc2N1Cc1ccccc1 [Example 69, 3-{[(3R)-4-benzyl-1,3-dimethyl-2-oxo-1,2,3,4-tetrahydroquinoxalin-6-yl]amino}-N,N-dimethyl-benzenesulphonamide] | 496 nM | 63 nM
C[C@@H]1C(=O)N(C)c2ccc(Nc3cccc(S(=O)(=O)N(C)C)c3)nc2N1C1CCN(C(=O)OC(C)(C)C)CC1 [Example 61, tert-butyl 4-[(3R)-6-{[3-(dimethylsulphamoyl)-phenyl]amino}-1,3-dimethyl-2-oxo-2,3-dihydropyrido[2,3-b]pyrazin-4(1H)-yl]piperidine-1-carboxylate] | 208 nM | 166 nM
